Experimental data: BigSolDB 2.1

O=C1C(CCS(=O)c2ccccc2)C(=O)N(c2ccccc2)N1c1ccccc1 (stereo not drawn)
solubility (mole fraction)
Details | 283.15 K | 288.15 K | 293.15 K | 298.15 K | 303.15 K | 308.15 K | 313.15 K | 318.15 K | 323.15 K
in 2-butanone | 0.0136 | 0.0157 | 0.0199 | 0.0241 | 0.0288 | 0.0333 | 0.0388 | 0.0495 | 0.0601
in acetone | 0.0138 | 0.0165 | 0.02 | 0.0244 | 0.0293 | 0.0371 | 0.0452 | 0.0524 | 0.0745
in acetonitrile | 0.0131 | 0.0155 | 0.0213 | 0.0265 | 0.0334 | 0.0474 | 0.0648 | 0.0799 | 0.103
in ethanol | 0.00156 | 0.00211 | 0.0027 | 0.00356 | 0.0045 | 0.00542 | 0.00719 | 0.00956 | 0.0137
in isopropanol | 0.000256 | 0.000609 | 0.00104 | 0.00204 | 0.00302 | 0.0045 | 0.00583 | 0.0071 | 0.00937
in methanol | 0.0026 | 0.00318 | 0.00401 | 0.00508 | 0.00679 | 0.00864 | 0.0114 | 0.0176 | 0.0278
in methyl acetate | 0.00978 | 0.0109 | 0.0139 | 0.0161 | 0.0195 | 0.0222 | 0.0272 | 0.0345 | 0.0485
in n-butanol | 0.00169 | 0.00245 | 0.00314 | 0.00438 | 0.00592 | 0.00724 | 0.00971 | 0.0129 | 0.0166
in n-pentanol | 0.00284 | 0.00357 | 0.00429 | 0.0053 | 0.00627 | 0.00725 | 0.00824 | 0.00921 | 0.0109
in n-propanol | 0.00198 | 0.00266 | 0.00347 | 0.00485 | 0.00617 | 0.00752 | 0.0101 | 0.0132 | 0.0183
in sec-butanol | 0.0024 | 0.00301 | 0.00388 | 0.0047 | 0.00546 | 0.00655 | 0.00876 | 0.0109 | 0.0156
in water | 3.6e-05 | 6.32e-05 | 0.000111 | 0.000176 | 0.000264 | 0.000352 | 0.000479 | 0.000615 | 0.000777
